Test results: US11262362B2, “2-hydroxyglutarate as a biomarker for chronic hypoxia” (MEMORIAL SLOAN KETTERING CANCER CENTER, priority 2011, dated 2022)

Tested on: SF188 cells
Assay: Viability of glutamine-starved SF188 cells in hypoxia (trypan blue dye exclusion)
Assay type: cell-based, human
Settings: 0.5% O2, glutamine-deficient medium supplemented with 7 mM dimethyl α-ketoglutarate, 48 h
Description: In FIG. 2(A), SF188 cells were cultured for 24 h in complete medium equilibrated with either 21% O2 (Normoxia) or 0.5% O2 (Hypoxia). Culture medium was then removed from cells and analyzed for glutamine levels which were compared to the glutamine levels in fresh medium. Data are the mean±SEM of 3 independent experiments. […] Cells were cultured in complete medium equilibrated with 0.5% O2 for 24 h, followed by an additional 48 h at 0.5% O2 in either complete medium (+Gln), glutamine-deficient medium (−Gln), or glutamine-deficient medium supplemented with 7 mM dimethyl α-ketoglutarate (−Gln+αKG). All medium was pre-conditioned in 0.5% O2. Cell viability was determined by trypan blue dye exclusion. Data are the mean and range from 2 independent experiments. FIG. 2(C) depicts a model of the pathways for cit+4 and cit+5 production from [U-^13C]glutamine (glutamine+5). […] Cells were cultured for 24 h as in (A), followed by 4 h of culture in glutamine-deficient medium supplemented with 4 mM [U-^13C]glutamine. ^13C enrichment in cellular citrate was quantitated with GC-MS. […]
SF188 and RCC4 cells were cultured in Dulbecco's Modified Eagle's Medium (DMEM; Invitrogen 11965), 10% fetal bovine serum (FBS; Gemini Biosystems), 100 units/ml Penicillin, 100 ug/ml Streptomycin, 25 mM glucose, and 6 mM L-glutamine. […] Viability was determined by trypan blue exclusion. […]

COC(=O)CCC(=O)C(=O)OC [dimethyl α-ketoglutarate]
cell viability upon glutamine withdrawal: rescued the defect in cell viability
